Experimental data taken from ChEMBL document CHEMBL1201862, “PubChem BioAssay data set” (2004).
Calls of active or inactive are those of the source.

Legend:
Procathepsin L = Procathepsin L (Homo sapiens, UniProt P07711)
Aspartyl aminopeptidase = target: T1, Aspartyl aminopeptidase (Plasmodium falciparum 3D7, UniProt Q8I2J3)
T1 sequence (Q8I2J3 whole entry): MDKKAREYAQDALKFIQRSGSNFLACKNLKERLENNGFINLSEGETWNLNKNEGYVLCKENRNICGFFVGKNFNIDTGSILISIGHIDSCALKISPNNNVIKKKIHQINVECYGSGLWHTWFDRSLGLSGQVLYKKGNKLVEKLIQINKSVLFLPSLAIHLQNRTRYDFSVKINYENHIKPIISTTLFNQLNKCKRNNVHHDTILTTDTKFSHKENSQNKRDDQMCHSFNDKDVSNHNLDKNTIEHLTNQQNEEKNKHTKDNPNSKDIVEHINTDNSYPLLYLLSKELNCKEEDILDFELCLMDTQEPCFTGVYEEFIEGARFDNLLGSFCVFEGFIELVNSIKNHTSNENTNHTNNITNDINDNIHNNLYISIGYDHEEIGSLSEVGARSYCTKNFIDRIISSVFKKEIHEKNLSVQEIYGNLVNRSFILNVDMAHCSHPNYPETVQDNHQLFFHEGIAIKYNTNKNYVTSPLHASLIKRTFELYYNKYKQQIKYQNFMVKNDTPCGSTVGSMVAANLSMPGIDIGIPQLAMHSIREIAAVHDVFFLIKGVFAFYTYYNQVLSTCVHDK

[1] = target: T2, Mannose-6-phosphate isomerase (Homo sapiens, UniProt P34949); test: MPI enzyme activity inhibition – biochemical, fluorescence intensity, coupled assay, primary screen (AID 1209)
T2 sequence (P34949 whole entry): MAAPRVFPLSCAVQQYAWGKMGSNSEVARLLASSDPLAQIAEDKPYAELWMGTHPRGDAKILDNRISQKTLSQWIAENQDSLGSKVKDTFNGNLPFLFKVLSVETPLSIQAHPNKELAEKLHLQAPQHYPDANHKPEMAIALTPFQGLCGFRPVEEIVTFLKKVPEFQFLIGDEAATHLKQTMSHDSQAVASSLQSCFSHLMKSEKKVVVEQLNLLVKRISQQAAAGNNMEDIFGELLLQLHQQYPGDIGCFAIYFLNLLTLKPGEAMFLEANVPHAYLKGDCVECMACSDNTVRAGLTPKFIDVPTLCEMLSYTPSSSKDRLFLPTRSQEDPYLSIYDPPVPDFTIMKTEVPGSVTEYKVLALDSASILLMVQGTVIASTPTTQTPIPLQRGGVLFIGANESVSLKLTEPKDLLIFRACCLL

[2] = target: T2, Mannose-6-phosphate isomerase; test: MPI inhibition at elevated mannose 6-phosphate – biochemical, fluorescence intensity, high mannose 6-phosphate, primary screen (AID 1220)
[3] = viability of HCT116 lacking mutant beta-catenin – cell-based, human colon tumor, dose response (AID 1045); assay type: functional;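 further: HCT116 colon tumor cells with beta catenin knocked out; cells exposed to compound for 60 hours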
[4] = target: T3, Zinc finger protein mex-5 (Caenorhabditis elegans, UniProt Q9XUB2); test: potency of MEX-5 RNA-binding blockers – biochemical, C. elegans, fluorescence polarization, dose response (AID 1960)
T3 sequence (Q9XUB2 whole entry): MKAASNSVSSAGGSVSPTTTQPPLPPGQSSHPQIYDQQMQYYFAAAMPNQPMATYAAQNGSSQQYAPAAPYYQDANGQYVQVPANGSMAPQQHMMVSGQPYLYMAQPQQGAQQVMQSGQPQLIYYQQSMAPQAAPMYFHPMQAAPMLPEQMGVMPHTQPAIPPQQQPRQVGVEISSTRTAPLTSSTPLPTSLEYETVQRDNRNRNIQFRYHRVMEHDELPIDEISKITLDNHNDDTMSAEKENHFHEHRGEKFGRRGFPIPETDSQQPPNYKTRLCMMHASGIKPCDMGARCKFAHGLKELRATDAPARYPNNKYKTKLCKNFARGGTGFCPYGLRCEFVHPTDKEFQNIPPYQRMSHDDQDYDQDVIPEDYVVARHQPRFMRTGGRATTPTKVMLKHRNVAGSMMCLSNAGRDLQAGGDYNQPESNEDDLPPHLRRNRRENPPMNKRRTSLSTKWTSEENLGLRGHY

[5] = Luminescence Cell-Based Dose Retest to Confirm Inhibitors of Cancer Stem Cells. [Related pubchem assays (depositor defined):AID2717, AID2721]; assay type: functional; conditions: Homo sapiens
H9c2 = test: cells; assay type: functional, cell-based; conditions: Rattus norvegicus, H9c2, Myocardium;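 further: confirmatory concentration-response retest of ultra-high-throughput screening hits for modulation of myocardial damage; cell death induced by hydrogen peroxide oxidative stress; compound pretreatment for 60 min then peroxide exposure for 2 h; potency is for protecting the cells against peroxide damage rather than for killing them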
Vero = test: cells; assay type: functional; conditions: Chlorocebus sabaeus
[6] = viability of PTEN-deleted HCT116 cells – cell-based, HCT116 PTEN knockout, dose response (AID 1047); assay type: functional;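 further: HCT116 colon tumor cells with PTEN knocked out; cells exposed to compound for 60 hours before readout; potency for loss of cell viability measured by luminescence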
[7] = target: T4, RNA-binding protein pos-1 (Caenorhabditis elegans, UniProt G5EF15); test: disruptors of C. elegans POS-1 RNA interaction – biochemical, fluorescence polarization, dose response (AID 1964);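 further: purified POS-1 fused to maltose binding protein made in E. coli; potency of compounds blocking POS-1 binding to fluorescent RNA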
T4 sequence (G5EF15 whole entry): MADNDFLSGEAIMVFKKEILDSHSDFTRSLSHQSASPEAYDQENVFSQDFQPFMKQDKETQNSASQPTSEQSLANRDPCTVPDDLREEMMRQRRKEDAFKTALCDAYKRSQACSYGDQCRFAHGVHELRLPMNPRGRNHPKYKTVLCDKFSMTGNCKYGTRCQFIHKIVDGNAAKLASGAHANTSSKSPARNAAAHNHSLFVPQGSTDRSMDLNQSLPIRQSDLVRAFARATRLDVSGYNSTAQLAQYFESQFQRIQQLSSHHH

SUMO-activating enzyme [8] = target: T5, SUMO-activating enzyme (Homo sapiens, UniProt Q9UBT2); test: blockers of SAE1/SAE2–UBC9 SUMO transfer – biochemical, HTRF, uHTS, primary screen (AID 2006); assay type: protein-complex assay
T5 sequence (Q9UBE0 whole entry): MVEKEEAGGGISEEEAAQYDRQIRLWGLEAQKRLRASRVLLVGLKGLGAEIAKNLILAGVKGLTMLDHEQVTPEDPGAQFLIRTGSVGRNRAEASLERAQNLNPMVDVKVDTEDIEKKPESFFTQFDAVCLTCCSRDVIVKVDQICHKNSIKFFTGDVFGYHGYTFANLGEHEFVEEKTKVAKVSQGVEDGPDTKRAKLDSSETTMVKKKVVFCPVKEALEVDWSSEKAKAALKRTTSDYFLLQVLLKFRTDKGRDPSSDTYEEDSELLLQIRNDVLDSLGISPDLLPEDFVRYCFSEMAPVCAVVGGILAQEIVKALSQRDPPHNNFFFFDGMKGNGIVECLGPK
T5 sequence (Q9UBT2 whole entry): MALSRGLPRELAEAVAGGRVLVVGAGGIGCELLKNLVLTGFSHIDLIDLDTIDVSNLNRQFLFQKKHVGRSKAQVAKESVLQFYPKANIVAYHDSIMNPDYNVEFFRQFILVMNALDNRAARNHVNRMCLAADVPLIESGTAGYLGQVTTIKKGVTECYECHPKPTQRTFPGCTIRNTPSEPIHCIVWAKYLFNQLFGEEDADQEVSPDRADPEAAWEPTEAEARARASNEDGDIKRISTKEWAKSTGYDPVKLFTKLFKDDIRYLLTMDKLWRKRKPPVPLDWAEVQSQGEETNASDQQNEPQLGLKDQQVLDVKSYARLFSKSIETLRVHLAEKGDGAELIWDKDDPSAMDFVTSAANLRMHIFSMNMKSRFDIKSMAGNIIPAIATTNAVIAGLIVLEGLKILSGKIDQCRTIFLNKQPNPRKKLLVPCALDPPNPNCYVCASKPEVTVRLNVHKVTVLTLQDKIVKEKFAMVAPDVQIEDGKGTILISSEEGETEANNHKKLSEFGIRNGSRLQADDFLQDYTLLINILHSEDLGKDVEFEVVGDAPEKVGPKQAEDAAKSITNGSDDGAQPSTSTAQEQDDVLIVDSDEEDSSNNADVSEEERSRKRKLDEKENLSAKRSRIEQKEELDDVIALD

SUMO-activating enzyme [9] = target: T5, SUMO-activating enzyme; test: blockers of UBC9-mediated SUMO conjugation – biochemical, AlphaScreen, SUMOylation inhibitor project, confirmation (AID 2018); assay type: functional
[10] = mitochondrial function rescue without frataxin homolog – Friedreich's ataxia, plus single-dose screen, dose response (AID 1465); assay type: functional;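 further: yeast depleted of Yfh1p frataxin homolog grown on glycerol needing respiration; WST-1 tetrazolium dye reduction as measure of cellular dehydrogenase metabolic activity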
H4 = test: Luminescence Cell-Based Dose Response HTS to Identify Activators of 5'UTR Stem-Loop Driven Prion Protein mRNA Translation in H4 Neuroglioblastoma Cells. [Related pubchem assays: 1829 (Project Summary), 1814 (Primary HTS)]; assay type: functional; conditions: Homo sapiens
[11] = Luminescence Cell-Based Dose Confirmation HTS to Identify Activators of 5'UTR Stem-Loop Driven Alpha-Synuclein mRNA Translation in H4 Neuroglioblastoma Cells. [Related pubchem assays: 1829 (Project Summary), 1814 (Primary HTS)]; assay type: functional
[12] = Luminescence Cell-Based Dose Response HTS to Identify Activators of Luciferase Translation or Activity in H4 […] Cells. [Related pubchem assays: 1829 (Project Summary), 1814 (Primary HTS)]; assay type: functional
[13] = A Cell Based Secondary Assay To Explore Cytotoxicity of Compounds that Sensitize Mycobacterium Tuberculosis to Beta-Lactam Antibiotics.; assay type: functional
[14] = target: Transitional endoplasmic reticulum ATPase (Homo sapiens, UniProt P55072, C522A); test: C522A mutant p97 ATPase inhibitors, dose response, counter-screen for p97 inhibitor project, biochemical, luminescence (AID 1544)
Transitional endoplasmic reticulum ATPase (Homo sapiens, UniProt P55072, C522A), sequence (P55072 2-806 C522A limits assumed): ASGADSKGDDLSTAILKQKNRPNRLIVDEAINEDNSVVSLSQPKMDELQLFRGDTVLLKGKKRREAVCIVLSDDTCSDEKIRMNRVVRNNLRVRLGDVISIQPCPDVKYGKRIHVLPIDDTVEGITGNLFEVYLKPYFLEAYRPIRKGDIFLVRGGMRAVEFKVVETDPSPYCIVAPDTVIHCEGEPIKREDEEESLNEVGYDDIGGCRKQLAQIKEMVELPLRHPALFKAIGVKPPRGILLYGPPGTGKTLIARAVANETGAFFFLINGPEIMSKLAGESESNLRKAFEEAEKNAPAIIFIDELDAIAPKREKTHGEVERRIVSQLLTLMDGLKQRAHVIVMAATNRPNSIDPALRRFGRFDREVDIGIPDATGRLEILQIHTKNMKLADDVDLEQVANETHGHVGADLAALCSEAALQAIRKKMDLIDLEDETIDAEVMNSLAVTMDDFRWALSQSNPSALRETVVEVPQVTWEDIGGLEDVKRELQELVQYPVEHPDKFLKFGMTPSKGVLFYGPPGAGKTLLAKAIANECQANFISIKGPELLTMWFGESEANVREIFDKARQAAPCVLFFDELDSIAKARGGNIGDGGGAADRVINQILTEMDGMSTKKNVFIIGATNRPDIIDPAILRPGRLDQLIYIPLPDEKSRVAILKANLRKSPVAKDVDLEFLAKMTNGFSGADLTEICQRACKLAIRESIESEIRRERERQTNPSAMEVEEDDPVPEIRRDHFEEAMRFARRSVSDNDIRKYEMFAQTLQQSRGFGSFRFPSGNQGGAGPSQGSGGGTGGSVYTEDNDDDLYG

[15] = target: Transitional endoplasmic reticulum ATPase (Homo sapiens, UniProt P55072); test: p97 ATPase inhibitors, dose response, biochemical (AID 1534)
Transitional endoplasmic reticulum ATPase (Homo sapiens, UniProt P55072), sequence (P55072 whole entry): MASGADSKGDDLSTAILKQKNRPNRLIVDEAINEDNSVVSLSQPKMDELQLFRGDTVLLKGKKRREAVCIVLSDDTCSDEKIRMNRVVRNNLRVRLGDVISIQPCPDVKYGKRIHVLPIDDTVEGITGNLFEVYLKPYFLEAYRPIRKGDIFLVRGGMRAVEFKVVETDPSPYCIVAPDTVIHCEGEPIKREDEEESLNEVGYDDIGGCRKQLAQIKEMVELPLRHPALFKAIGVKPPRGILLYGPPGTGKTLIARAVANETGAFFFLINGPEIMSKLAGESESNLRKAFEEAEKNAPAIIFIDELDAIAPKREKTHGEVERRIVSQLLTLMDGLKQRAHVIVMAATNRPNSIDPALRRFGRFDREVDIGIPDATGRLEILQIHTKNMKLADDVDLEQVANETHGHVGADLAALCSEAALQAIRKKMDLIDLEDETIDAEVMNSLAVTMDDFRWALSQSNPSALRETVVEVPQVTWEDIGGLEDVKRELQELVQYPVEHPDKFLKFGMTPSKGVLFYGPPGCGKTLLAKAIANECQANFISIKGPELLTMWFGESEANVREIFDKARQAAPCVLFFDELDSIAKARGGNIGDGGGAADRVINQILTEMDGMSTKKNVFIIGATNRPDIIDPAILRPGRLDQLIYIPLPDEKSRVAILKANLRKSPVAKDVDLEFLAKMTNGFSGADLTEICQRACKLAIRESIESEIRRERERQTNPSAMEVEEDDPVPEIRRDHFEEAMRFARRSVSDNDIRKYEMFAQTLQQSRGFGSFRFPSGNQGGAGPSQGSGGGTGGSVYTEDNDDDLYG

[16] = NIH-3T3 fibroblast cytotoxicity, dose response, cytotoxicity control, cell-based, fluorescence, Alamar Blue, secondary assay (AID 2327); assay type: functional;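 further: NIH-3T3 mouse fibroblasts cultured with fluconazole at 8 µg/mL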
[17] = target: T6, Microphthalmia-associated transcription factor (Homo sapiens, UniProt O75030); test: reducers of TRPM1 reporter luminescence, concentration series – cell-based, SK-MEL-5, cherry-picked, set 3, MITF inhibitor project, dose response (AID 493073); assay type: functional;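 further: SK-MEL-5 melanoma cells with luciferase driven by the MITF target TRPM1 promoter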
T6 sequence (O75030 whole entry): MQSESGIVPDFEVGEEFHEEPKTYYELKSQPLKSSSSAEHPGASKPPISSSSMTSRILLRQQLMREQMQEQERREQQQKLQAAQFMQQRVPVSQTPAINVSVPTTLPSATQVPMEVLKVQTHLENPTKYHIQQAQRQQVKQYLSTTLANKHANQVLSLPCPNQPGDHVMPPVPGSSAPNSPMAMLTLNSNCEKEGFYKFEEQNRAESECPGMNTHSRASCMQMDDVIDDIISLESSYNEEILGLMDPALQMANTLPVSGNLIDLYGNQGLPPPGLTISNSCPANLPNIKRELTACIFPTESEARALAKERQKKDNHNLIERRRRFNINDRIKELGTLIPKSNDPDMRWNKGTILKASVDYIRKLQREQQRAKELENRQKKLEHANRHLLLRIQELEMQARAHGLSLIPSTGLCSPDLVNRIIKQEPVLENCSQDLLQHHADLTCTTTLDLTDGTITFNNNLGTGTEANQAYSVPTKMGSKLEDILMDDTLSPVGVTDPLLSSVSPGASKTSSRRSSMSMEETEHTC

[18] = fluconazole-exposed Candida albicans growth modulators – fluorescence, retest, confirmation (AID 2467); assay type: functional, cell-based
[19] = target: Peroxisome proliferator-activated receptor gamma/Nuclear receptor coactivator 1 (Homo sapiens, UniProt P37231); assay type: functional;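 further: agonist potency as compounds enhance coactivator SRC-1 recruitment to PPARgamma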
Peroxisome proliferator-activated receptor gamma/Nuclear receptor coactivator 1, sequence (P37231 whole entry): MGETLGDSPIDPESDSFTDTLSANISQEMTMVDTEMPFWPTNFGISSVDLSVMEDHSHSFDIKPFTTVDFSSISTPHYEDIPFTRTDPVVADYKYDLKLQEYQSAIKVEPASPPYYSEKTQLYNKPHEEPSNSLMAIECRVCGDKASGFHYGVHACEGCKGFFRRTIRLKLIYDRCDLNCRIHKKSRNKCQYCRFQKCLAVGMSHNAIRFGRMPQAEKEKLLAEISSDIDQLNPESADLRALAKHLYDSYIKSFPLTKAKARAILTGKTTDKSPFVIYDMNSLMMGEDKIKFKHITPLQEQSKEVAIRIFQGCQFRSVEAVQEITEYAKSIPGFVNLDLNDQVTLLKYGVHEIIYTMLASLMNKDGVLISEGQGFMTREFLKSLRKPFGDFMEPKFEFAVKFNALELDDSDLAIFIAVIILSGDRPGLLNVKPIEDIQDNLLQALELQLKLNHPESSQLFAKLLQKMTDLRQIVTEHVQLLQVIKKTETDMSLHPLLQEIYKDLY
Peroxisome proliferator-activated receptor gamma/Nuclear receptor coactivator 1, sequence (Q15788 whole entry, further chain): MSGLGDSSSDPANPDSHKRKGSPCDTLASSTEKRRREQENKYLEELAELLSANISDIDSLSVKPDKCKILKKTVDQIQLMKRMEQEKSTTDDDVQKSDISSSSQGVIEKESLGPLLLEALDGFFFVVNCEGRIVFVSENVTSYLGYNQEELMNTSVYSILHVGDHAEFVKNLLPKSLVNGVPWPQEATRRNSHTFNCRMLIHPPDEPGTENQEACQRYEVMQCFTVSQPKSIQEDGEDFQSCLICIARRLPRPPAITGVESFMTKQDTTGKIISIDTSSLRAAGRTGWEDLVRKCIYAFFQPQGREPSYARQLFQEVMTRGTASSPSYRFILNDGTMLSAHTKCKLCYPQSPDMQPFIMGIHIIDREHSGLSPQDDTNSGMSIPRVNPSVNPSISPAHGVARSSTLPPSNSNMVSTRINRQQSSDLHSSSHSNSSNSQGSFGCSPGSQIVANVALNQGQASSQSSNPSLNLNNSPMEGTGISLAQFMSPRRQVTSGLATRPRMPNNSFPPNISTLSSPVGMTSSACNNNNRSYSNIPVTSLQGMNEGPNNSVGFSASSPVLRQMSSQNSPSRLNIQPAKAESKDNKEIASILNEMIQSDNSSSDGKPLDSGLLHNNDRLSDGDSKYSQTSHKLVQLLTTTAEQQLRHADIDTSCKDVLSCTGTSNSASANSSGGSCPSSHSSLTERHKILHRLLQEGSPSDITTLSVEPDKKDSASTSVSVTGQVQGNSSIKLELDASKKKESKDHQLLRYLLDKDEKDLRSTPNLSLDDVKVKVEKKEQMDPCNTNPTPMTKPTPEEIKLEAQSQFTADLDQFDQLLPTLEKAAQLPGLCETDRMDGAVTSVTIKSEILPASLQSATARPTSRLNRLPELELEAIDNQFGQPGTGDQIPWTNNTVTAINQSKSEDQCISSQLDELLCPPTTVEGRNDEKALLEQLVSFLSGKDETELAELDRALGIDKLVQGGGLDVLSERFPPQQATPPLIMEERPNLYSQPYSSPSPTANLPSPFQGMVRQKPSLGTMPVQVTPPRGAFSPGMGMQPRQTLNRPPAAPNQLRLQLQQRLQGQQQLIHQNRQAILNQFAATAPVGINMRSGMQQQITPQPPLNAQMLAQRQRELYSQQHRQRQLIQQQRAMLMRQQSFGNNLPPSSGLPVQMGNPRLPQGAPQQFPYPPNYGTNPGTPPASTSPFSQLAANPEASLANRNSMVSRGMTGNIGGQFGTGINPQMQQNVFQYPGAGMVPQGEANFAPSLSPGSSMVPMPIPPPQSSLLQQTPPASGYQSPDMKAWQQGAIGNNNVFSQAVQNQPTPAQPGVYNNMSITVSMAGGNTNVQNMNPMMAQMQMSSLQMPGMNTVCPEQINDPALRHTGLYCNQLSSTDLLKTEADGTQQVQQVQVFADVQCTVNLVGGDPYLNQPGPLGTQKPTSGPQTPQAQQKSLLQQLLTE

[20] = target: Peroxisome proliferator-activated receptor gamma/Nuclear receptor coactivator 2 (Homo sapiens, UniProt P37231); assay type: functional;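 further: agonist potency for raising coactivator recruitment to the receptor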
[21] = target: Peroxisome proliferator-activated receptor gamma/Nuclear receptor coactivator 3 (Homo sapiens, UniProt P37231); assay type: functional;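 further: agonist potency for raising coactivator recruitment to the receptor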

Procathepsin L, sequence (P07711 whole entry): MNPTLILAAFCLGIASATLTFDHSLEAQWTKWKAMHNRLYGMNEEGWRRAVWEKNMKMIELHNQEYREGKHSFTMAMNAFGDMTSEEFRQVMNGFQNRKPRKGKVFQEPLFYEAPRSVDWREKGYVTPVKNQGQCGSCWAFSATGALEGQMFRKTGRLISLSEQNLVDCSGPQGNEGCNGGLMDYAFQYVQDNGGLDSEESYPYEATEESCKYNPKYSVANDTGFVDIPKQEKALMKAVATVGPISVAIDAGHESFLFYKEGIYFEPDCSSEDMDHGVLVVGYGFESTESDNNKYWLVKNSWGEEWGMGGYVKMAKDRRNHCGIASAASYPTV

Cc1scc(C(=O)Nn2cnnc2)c1-c1ccccc1
IC50 (Procathepsin L): > 59.6 µM (not active) | IC50 (Aspartyl aminopeptidase): 3.13 µM (active)

CCOC(=O)c1c2ccc(OCC(=O)N/N=C/c3ccc(C)cc3)cc2n2ccccc12
IC50 [1]: > 50 µM (not active) | IC50 [2]: 13.1 µM (active) | EC50 [3]: 6.24 µM (active) | EC50 [4]: > 300 µM (not active) | AC50 [5]: 5.11 µM (active) | IC50 (H9c2): 40.5 µM (inactive) | CC50 (Vero): > 25 µM (active) | EC50 [6]: 5.25 µM (active) | EC50 [7]: > 300 µM (not active) | IC50 (SUMO-activating enzyme [8]): 7.01 µM (active) | IC50 (SUMO-activating enzyme [9]): 17.9 µM (active)

O=C1CNC(=S)N1CCc1ccc(Cl)cc1
EC50 [10]: > 100 µM (active)

N#CC1=C2C=Cc3ccccc3N2CCCC1=O
EC50 (H4): 21 µM (active) | EC50 [11]: 20 µM (active) | EC50 [12]: 26.4 µM (active) | CC50 [13]: > 40 µM (active)

Cc1[nH]c2ccccc2c1C(=O)CCl
IC50 [14]: > 50 µM (not active) | IC50 [15]: > 50 µM (not active) | EC50 [16]: 8.72 µM (inconclusive) | AC50 [17]: 6.78 µM (active) | EC50 [18]: 0.497 µM (active)

CCOC(=O)c1oc2ccc(S(=O)(=O)N3CCC(C)CC3)cc2c1C
EC50 [19]: > 79.4 µM (not active) | EC50 [20]: > 79.4 µM (not active) | EC50 [21]: > 79.4 µM (not active)
